One test deals with T1, human TLR7 (Homo sapiens, UniProt Q9NYK1).
T1 construct: host or cells: HEK-Blue TLR7 cells (engineered human embryonic kidney cells)
T1 sequence (Q9NYK1 27-1049): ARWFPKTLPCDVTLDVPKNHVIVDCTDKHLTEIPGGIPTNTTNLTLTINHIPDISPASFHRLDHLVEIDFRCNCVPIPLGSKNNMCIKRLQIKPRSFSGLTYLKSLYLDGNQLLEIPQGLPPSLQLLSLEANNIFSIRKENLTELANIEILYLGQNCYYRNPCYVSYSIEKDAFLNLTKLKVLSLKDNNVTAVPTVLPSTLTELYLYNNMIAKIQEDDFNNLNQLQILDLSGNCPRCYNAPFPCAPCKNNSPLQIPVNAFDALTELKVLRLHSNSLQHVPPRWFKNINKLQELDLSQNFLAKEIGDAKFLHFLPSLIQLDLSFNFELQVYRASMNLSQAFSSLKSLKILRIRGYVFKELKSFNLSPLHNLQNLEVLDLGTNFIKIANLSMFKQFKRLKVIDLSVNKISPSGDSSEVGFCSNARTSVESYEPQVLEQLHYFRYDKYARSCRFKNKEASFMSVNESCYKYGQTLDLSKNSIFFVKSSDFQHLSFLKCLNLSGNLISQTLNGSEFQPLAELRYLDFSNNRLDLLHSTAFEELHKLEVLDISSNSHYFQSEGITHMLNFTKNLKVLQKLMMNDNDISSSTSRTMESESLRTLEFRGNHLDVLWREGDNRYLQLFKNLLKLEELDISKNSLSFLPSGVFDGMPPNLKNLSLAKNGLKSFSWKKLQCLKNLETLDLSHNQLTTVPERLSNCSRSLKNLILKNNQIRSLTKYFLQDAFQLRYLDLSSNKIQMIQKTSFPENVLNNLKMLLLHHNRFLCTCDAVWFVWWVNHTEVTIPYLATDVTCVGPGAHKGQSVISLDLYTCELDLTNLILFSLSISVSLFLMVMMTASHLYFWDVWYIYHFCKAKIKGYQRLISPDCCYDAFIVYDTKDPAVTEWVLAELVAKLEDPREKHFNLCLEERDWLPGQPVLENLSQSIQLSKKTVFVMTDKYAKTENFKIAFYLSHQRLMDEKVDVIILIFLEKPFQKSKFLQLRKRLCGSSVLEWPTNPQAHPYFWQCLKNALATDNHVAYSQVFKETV
Briefly: Human TLR7 agonist activity reporter assay (HEK-Blue TLR7 cells, SEAP reporter). The class given is cell-based. The settings on record: human TLR7 (hTLR7) reporter assay, SEAP readout after 18 h, average where assay repeated, read-out: TLR7 Agonism EC50. On the procedure:
Human TLR7 Agonist Activity Assay
This procedure describes a method for assaying human TLR7 (hTLR7) agonist activity of the compounds disclosed in this specification.
HEK-Blue™ TLR7 cells were added to each well of a 384-well tissue-culture plate (15,000 cells per well) and incubated 16-18 h at 37° C., 5% CO2. Compounds (100 nl) were dispensed into wells containing the HEK-Blue™ TLR cells and the treated cells were incubated at 37° C., 5% CO2. After 18 h treatment ten microliters of freshly-prepared Quanti-Blue™ reagent (Invivogen) was added to each well, incubated for 30 min (37° C., 5% CO2) and SEAP levels measured using an Envision plate reader (OD=620 nm).
(In general: Reporter assays use an easily measured gene product as a stand-in for the process of interest.)

A further test has as its system CD69. Briefly: Induction of CD69 in human whole blood. The class given is cell-based. As to conditions: 17 hrs incubation, CD69 surface staining, 100% set to 1 uM of resiquimod, average where assay repeated, read-out: hWB CD69 EC50. As to the method: Induction of Type I Interferon Genes (MX-1) and CD69 in Human Blood
The induction of Type I interferon (IFN) MX-1 genes and the B-cell activation marker CD69 are downstream events that occur upon activation of the TLR7 pathway. The following is a human whole blood assay that measures their induction in response to a TLR7 agonist.
Heparinized human whole blood was harvested from human subjects and treated with test TLR7 agonist compounds at 1 mM. The blood was diluted with RPMI 1640 media and Echo was used to predot 10 nL per well giving a final concentration of 1 uM (10 nL in 10 uL of blood). After mixing on a shaker for 30 sec, the plates were covered and placed in a 37° C. chamber for o/n=17 hrs. Fixing/lysis buffer was prepared (5×→1× in H2O, warm at 37° C.; Cat #BD 558049) and kept the perm buffer (on ice) for later use.
For surface markers staining (CD69): prepared surface Abs: 0.045 ul hCD14-FITC (ThermoFisher Cat #MHCD1401)+0.6 ul hCD19-ef450 (ThermoFisher Cat #48-0198-42)+1.5 ul hCD69-PE (cat #BD555531)+0.855 ul FACS buffer. Added 3 ul/well, spin 1000 rpm for 1 min and mixed on shaker for 30 sec, put on ice for 30 min. Stop stimulation after 30 minutes with 70 uL of prewarmed 1× fix/lysis buffer and use Feliex mate to resuspend (15 times, change tips for each plate) and incubate at 37 C for 10 minutes.
Centrifuge at 2000 rpm for 5 minutes aspirate with HCS plate washer, mix on shaker for 30 sec and then wash with 70 uL in dPBS and pelleted 2×s (2000 rpm for 5 min) and 50 ul wash in FACS buffer pelleted 1×s (2000 rpm for 5 min). Mix on shaker for 30 sec. For Intracellular markers staining (MX-1): Add 50 ul of BD Perm buffer III and mix on shaker for 30 sec. Incubate on ice for 30 minutes (in the dark). Wash with 50 uL of FACS buffer 2× (spin @2300 rpm×5 min after perm) followed by mixing on shaker for 30 sec. Resuspended in 20 ul of FACS buffer containing MX1 antibody ( )(4812)-Alexa 647: Novus Biologicals #NBP2-43704AF647) 20 ul FACS bf+0.8 ul hIgG+0.04 ul MX-1. Spin 1000 rpm for 1 min, mix on shaker for 30 se and the samples were incubated at RT in the dark for 45 minutes followed by washing 2×FACS buffer (spin @2300 rpm×5 min after perm). Resuspend 20 ul (35 uL total per well) of FACS buffer and cover with foil and place in 4° C. to read the following day. Plates were read on iQuePlus. The results were loaded into toolset and […] curves are generated in curve master. The y-axis 100% is set to 1 uM of resiquimod.

The structures appear in SMILES notation. pEC50: −log10 of the molar value.

These results are taken from patent publication US12485123B2, “1H-pyrazolo[4,3-d]pyrimidine compounds as toll-like receptor 7 (TLR7) agonists” (BRISTOL-MYERS SQUIBB COMPANY, priority 2020, dated 2025).

Regarding `CCC[C@@H](CCO)Nc1nc(N)nc2cnn(Cc3ccc(C(=O)N4CC5(COC5)C4)c4cccnc34)c12` [Compound 127, (3S)-3-({5-amino-1-[(5-{2-oxa-6-azaspiro[3.3]heptane-6-carbonyl}quinolin-8-yl)methyl]-1H-pyrazolo[4,3-d]pyrimidin-7-yl}amino)hexan-1-ol], the figures for the pEC50 at human TLR7 and in the test with CD69 were 7.26 and 7.04, respectively.

Regarding `CCC[C@@H](CCO)Nc1nc(N)nc2cnn(Cc3ccc(CN4CC5(CCOCC5)C4)c4cccnc34)c12` [Compound 106, (3S)-3-[(5-amino-1-{[5-({7-oxa-2-azaspiro[3.5]nonan-2-yl}methyl)quinolin-8-yl]methyl}-1H-pyrazolo[4,3-d]pyrimidin-7-yl)amino]hexan-1-ol], the pEC50 at human TLR7 is 7.71; in the test with CD69 it was 7.32.

As for `CCC[C@@H](CCO)Nc1nc(N)nc2cnn(Cc3ccc(C(=O)N4CCNC(=O)C4)c4cccnc34)c12` [Compound 118, 4-{8-[(5-amino-7-{[(3S)-1-hydroxyhexan-3-yl]amino}-1H-pyrazolo[4,3-d]pyrimidin-1-yl)methyl]quinoline-5-carbonyl}piperazin-2-one], the pEC50 was 6.51 on human TLR7 and 6.68 in the test with CD69.

`CCC[C@@H](CCO)Nc1nc(N)nc2cnn(Cc3ccc(C(=O)N4CCNCC4)c4cccnc34)c12` [Compound 137, (3S)-3-[(5-amino-1-{[5-(piperazine-1-carbonyl)quinolin-8-yl]methyl}-1H-pyrazolo[4,3-d]pyrimidin-7-yl)amino]hexan-1-ol]: the pEC50 at human TLR7 was 7.22; in the test on CD69, 7.69.

`CCC[C@@H](CCO)Nc1nc(N)nc2cnn(Cc3ccc(C4CCNCC4)c4cccnc34)c12` [Compound 141, (3S)-3-[(5-amino-1-{[5-(piperidin-4-yl)quinolin-8-yl]methyl}-1H-pyrazolo[4,3-d]pyrimidin-7-yl)amino]hexan-1-ol]: the values for the pEC50 at human TLR7 and in the test on CD69 were 7.66 and 9.52, respectively.

For the compound `CCC[C@@H](CCO)Nc1nc(N)nc2cnn(Cc3ccc(C(=O)N4C[C@H]5C[C@@H]4CN5C)c4cccnc34)c12` [Compound 126, (3S)-3-{[5-amino-1-({5-[(1R,4R)-5-methyl-2,5-diazabicyclo[2.2.1]heptane-2-carbonyl]quinolin-8-yl}methyl)-1H-pyrazolo[4,3-d]pyrimidin-7-yl]amino}hexan-1-ol], the pEC50 at human TLR7 was 6.72; in the test on CD69, 7.30.

As for `CCC[C@@H](CCO)Nc1nc(N)nc2cnn(Cc3ccc(CN4CC(OC)C4)c4cccnc34)c12` [Compound 102, (3S)-3-{[5-amino-1-({5-[(3-methoxyazetidin-1-yl)methyl]quinolin-8-yl}methyl)-1H-pyrazolo[4,3-d]pyrimidin-7-yl]amino}hexan-1-ol], the pEC50 on human TLR7 is 7.51; in the test on CD69 it was 7.91.

For the compound `CCC[C@@H](CCO)Nc1nc(N)nc2c(C)nn(Cc3ccc(C(=O)N4CCN(CCO)CC4)c4cccnc34)c12` [Compound 120, (3S)-3-{[5-amino-1-({5-[4-(2-hydroxyethyl)piperazine-1-carbonyl]quinolin-8-yl}methyl)-3-methyl-1H-pyrazolo[4,3-d]pyrimidin-7-yl]amino}hexan-1-ol], the pEC50 at human TLR7 was 6.05; in the test with CD69, 6.00.

With `Cc1cc(CNc2nc(N)nc3cnn(Cc4ccc(C(=O)NC5CCN(C)CC5)c5cccnc45)c23)no1` [Compound 122, 8-[(5-amino-7-{[(5-methyl-1,2-oxazol-3-yl)methyl]amino}-1H-pyrazolo[4,3-d]pyrimidin-1-yl)methyl]-N-(1-methylpiperidin-4-yl)quinoline-5-carboxamide], the pEC50 on human TLR7 is 6.51; in the test on CD69, 7.27.

On to `CCC[C@@H](CCO)Nc1nc(N)nc2cnn(Cc3ccc(C(=O)N4C[C@H]5CN(C)C[C@H]5C4)c4cccnc34)c12` [Compound 125, (3S)-3-{[1-([5-[(3aR,6aS)-5-methyl-octahydropyrrolo[3,4-c]pyrrole-2-carbonyl]quinolin-8-yl}methyl)-5-amino-1H-pyrazolo[4,3-d]pyrimidin-7-yl]amino}hexan-1-ol], for which the pEC50 on human TLR7 is 7.47; with CD69, 7.08.

Turning to `CCC[C@@H](CCO)Nc1nc(N)nc2cnn(Cc3ccc(C(=O)N4CC(O)C4)c4cccnc34)c12` [Compound 135, 1-{8-[(5-amino-7-{[(3S)-1-hydroxyhexan-3-yl]amino}-1H-pyrazolo[4,3-d]pyrimidin-1-yl)methyl]quinoline-5-carbonyl}azetidin-3-ol], the pEC50 on human TLR7 is 6.90; with CD69 it was 7.10.

As for `CCC[C@@H](CCO)Nc1nc(N)nc2cnn(Cc3cccc4cccnc34)c12` [Compound 110, (3S)-3-({5-amino-1-[(quinolin-8-yl)methyl]-1H-pyrazolo[4,3-d]pyrimidin-7-yl}amino)hexan-1-ol], the results for the negative-log EC50 (pEC50) on human TLR7 and with CD69 were 6.54 and 6.14, respectively.

The pEC50 is −log10 of the EC50, conventionally taken in molar units.
